# Results: US12600757B2, “Peptides inhibiting gamma-c-cytokine activity and methods of use” (Bioniz, LLC, priority 2017, dated 2026)
# Bridge positions count the residues as written; N and C are the ends. Square brackets hold non-standard residues; d marks the D form. Ends that are not written are not given here. Peptide text beside a SMILES is read from it. R5 = C=CCCC[C@@](C)(N)C(=O)O; S5 = C=CCCC[C@](C)(N)C(=O)O
# Columns and labels:
# [1] = tested on: IL-15 induction of IFNγ gene transcription; test: IL-15 induced IFNγ gene transcription in NK92 cells (qPCR); assay type: cell-based; details: peptide 10 minutes pre-treatment, human IL-15 1 ng/mL for 2 hours
# From the text: (§1) The cytokine interferon gamma (IFNγ) represents a useful marker for inflammation in multiple human immune-inflammatory disease states. Transcription of the IFNγ gene is inducible by IL-15, IL-21, the non-γc cytokine IL-12, and other select cytokines. The ability to block cytokine-induced IFNγ transcription therefore represents another useful approach to determine the biological activity of custom peptide derivatives.
# (§2) NK92 cells were brought to a quiescent state by PBS washing and culturing in the absence of cytokine for 48 hours. Cells were treated with SEQ ID NO: […] for 10 minutes, and then stimulated with human IL-15, IL-21, or IL-12 at 1 ng/mL for 2 hours. A cytokine only treatment group, and another treatment group where the NK92 cells were left untreated by peptide, and not stimulated by cytokine were also included as control conditions. Following incubation with peptide and cytokine, cells were harvested, RNA was isolated for cDNA generation and used as template for qPCR analysis to quantify IFNγ transcripts.
# [2] = tested on: IL-21 induction of IFNγ gene transcription; test: IL-21 induced IFNγ gene transcription in NK92 cells (qPCR); assay type: cell-based; details: peptide 10 minutes pre-treatment, human IL-21 1 ng/mL for 2 hours
# From the text: as §1, §2
# [3] = tested on: IL-12 induction of IFNγ gene transcription; test: IL-12 induced IFNγ gene transcription in NK92 cells (qPCR); assay type: cell-based; details: peptide 10 minutes pre-treatment, human IL-12 1 ng/mL for 2 hours
# From the text: as §1, §2
# IL-2 = test: NK92 cell proliferation assay (WST-1), IL-2 stimulated; assay type: cell-based, human; details: NK92 cells, 2 days
# From the text: (§3) For each of the six γc-cytokines, indicator cell lines: NK92, a human NK cell line NK92 available by American Type Culture Collection (ATCC) (catalog #CRL-2407), CTLL-2, a murine CD8 T cells line available from ATCC, and PT-18, a murine mast cell line and its subclone PT-18β, is transfected with human IL-2Rβ gene to make the cells responsive to IL-2 and IL-15 (Tagaya et al., 1996, EMBO J. 15:4928-39), and is used to quantitatively determine the γc-cytokine's growth-promoting activity (See Current protocols in Immunology from Wiley and Sons for a methodological reference).
# (§4) Once the appropriate doses of the cytokine that yield the 50-70% and 95% maximum response from the indicator cell line is determined, various concentrations (ranging from 1 μM to 10 μM) of the purified or synthesized custom derivative peptide is added to each well containing the cytokine and indicator cells. The reduction in light absorbance at 450 nm is used as an indicator of inhibition of cytokine-stimulated cellular proliferation.
# (§5) The human NK cell line NK92 was used for a dose response of SEQ ID NO: 3 against IL-2, IL-15, and IL-21. Cells were cultured with 0.5 nM of recombinant IL-2 in RPMI 10% fetal Calf Serum. […] The growth-responses of the cells were determined 2 days after the introduction of SEQ ID NO: 3 and the cytokine using the WST-1 assay. […]
# IL-15 = test: NK92 cell proliferation assay (WST-1), IL-15 stimulated; assay type: cell-based, human; details: NK92 cells, 2 days
# From the text: as §3, §4, §5
# IL-21 = test: NK92 cell proliferation assay (WST-1), IL-21 stimulated; assay type: cell-based, human; details: NK92 cells, 2 days
# From the text: as §3, §4, §5
# IL-4 = test: NK92 cell proliferation assay (WST-1), IL-4 stimulated; assay type: cell-based, human; details: NK92 cells, peptide 2.5 μM (70% purity), 2 days
# From the text: as §3, §4
# as §5, with “to determine the γc-cytokine inhibitory specificity” for “for a dose response”, “3. In this assay the cells” for “3 against IL-2, IL-15, and IL-21. Cells”
# IL-9 = test: NK92 cell proliferation assay (WST-1), IL-9 stimulated; assay type: cell-based, human; details: NK92 cells, peptide 2.5 μM (70% purity), 2 days
# From the text: as §3, §4
# as §5, with “to determine the γc-cytokine inhibitory specificity” for “for a dose response”, “3. In this assay the cells” for “3 against IL-2, IL-15, and IL-21. Cells”
# [4] = tested on: IL-15 mediated phosphorylation of STAT-5; test: IL-15 mediated phosphorylation of STAT5 in CTLL-2 cells (immunoblot); assay type: cell-based, murine; details: anti-phospho-STAT5 immunoblot
# From the text: (§6) Similar to the IL-15 induced tyrosine phosphorylation of STAT5 via Jak3, it is well known in the art that Jak-STAT signaling mediated via IL-21 receptor binding preferentially induces Jak-mediated tyrosine phosphorylation of STAT3 (Habib et al. 2003 J Allergy Clin Immunol. 112:1033-45). In accordance with these published data, the ability of SEQ ID NO: 3 to inhibit the tyrosine phosphorylation of the STAT5 molecule by IL-2 or IL-15 in CTLL-2 cells, and the ability of SEQ ID NO: 3 to inhibit the tyrosine phosphorylation of the STAT3 molecule by IL-21 in NK92 cells was examined (results shown in FIG. 4B).
# (§7) CTLL-2 cells were stimulated by IL-2 or IL-15 in the presence or absence of SEQ ID NO: 3. CTLL-2 cells were also stimulated by IL-2 or IL-15 in the presence of anti-IL-2 antibody (R & D Systems, Catalog #MAB202, Minneapolis, MN) or anti-IL-15 antibody (R & D Systems, Catalog #MAB247, Minneapolis, MN) as positive controls. NK92 cells were stimulated by IL-21 in the presence or absence of SEQ ID NO: 3. NK92 cells were also stimulated by IL-21 in the presence of anti-IL-21 antibody (Mabtech, Catalog #3540-1-250, Cincinnati, OH) as a positive control. Cytoplasmic proteins were extracted from the cells according to a conventional method as described in Tagaya et al. 1996 EMBO J. 15:4928-39. […]
# [5] = tested on: IL-2 mediated phosphorylation of STAT-5; test: IL-2 mediated phosphorylation of STAT5 in CTLL-2 cells (immunoblot); assay type: cell-based, murine; details: anti-phospho-STAT5 immunoblot
# From the text: as §6, §7
# [6] = tested on: IL-21 mediated phosphorylation of STAT-3; test: IL-21 mediated phosphorylation of STAT3 in NK92 cells (immunoblot); assay type: cell-based, human; details: anti-phospho-STAT3 immunoblot
# From the text: as §6, §7
# [7] = tested on: T-cells in HAM/TSP culture; test: Ex vivo spontaneous T-cell proliferation assay using HAM/TSP patient PBMC; assay type: cell-based, human; details: HAM/TSP peripheral blood ex vivo culture
# Procedure: Proliferation assays were performed on HAM/TSP patient blood samples with and without the addition of BNZ-γ. These assays evaluated the ability of BNZ-γ to block the function of cytokines, such as IL-2 and IL-15, present in the ex vivo HAM/TSP patient blood culture and prevent spontaneous T-cell proliferation in these samples.
# In an ex vivo spontaneous T-cell proliferation assay, PBMC from HAM/TSP patient was cultured at 1×10(6) cells per well of a 96 well plate in RPMI-10% FCS. Increasing concentrations of BNZ-γ peptide were added to each well. As a control, an irrelevant peptide was used in similar fashion. The cells were incubated in a 37° C. CO2 incubator for 3, 4, and 6 days. The amount of 1 uCi of ^3H-thymidine was added to the cells. After an additional 6 hour incubation, cells were harvested their proliferation rate was measured. As indicated in FIG. 5A-FIG. 5D, BNZ-γ peptide inhibits the spontaneous proliferation of T-cells in HAM/TSP culture at a concentration of about 1 ug/ml.
# Other immunological markers were additionally measured in this assay. The percentage of the viral specific CD8 cells was measured during the ex vivo culture using viral protein tetramers. The population of CD4+CD25+ cells, a marker of T-cell activation, as well as Ki67 staining, a marker of T-cell proliferation, was monitored in a flow cytometry assay.
# [8] = Time-course protease stability in simulated intestinal fluid (RP-HPLC); details: simulated intestinal fluid (USP), 37° C., over 60 minutes
# From the text: To evaluate the gastric stability of the custom peptide derivatives containing one or more intra-peptide hydrocarbon linker elements of the present embodiments a time-course protease stability measurement of unmodified SEQ ID NO: 3 in comparison with a representative custom peptide derivative of SEQ ID NO: 3 containing one hydrocarbon linker element (SEQ ID NO: 39), and another representative custom peptide derivative of SEQ ID NO: 3 containing two hydrocarbon linker elements and certain amino acid positions in the (D) stereochemical configuration (SEQ ID NO: 57) was carried out in simulated intestinal fluid over 60 minutes. […] Simulated intestinal fluid was made according to USP specifications (Test Solutions, United States Pharmacopeia 36). 50 μL of 10 mg/mL peptide was mixed with 450 μL pre-warmed (37° C.) simulated intestinal fluid, and aliquots of the reaction mixture were removed at prescribed time intervals over a time-period of 60 minutes and stopped with 0.1 M HCl. Peptide stability was measured by reversed phase HPLC on a Phenomenex Aeris Peptide column (4.6×250 mm) with settings: 3.6 μm particle size, non-porous; 5.0 μL injection, 0.5 mL/min; mobile phase A: 25% Acetonitrile with 0.1% TFA; mobile phase B: 100% Acetonitrile with 0.1% TFA. The multi-step buffer gradient goes from 100% A to 100% B over 26 minutes. […]
# [9] = peptide 0-0.1 μM (>99% purity), cytokine at 70% proliferation level
molecule,measurement,setting,value
{S5Ala1}-P-K-E-{S5Ala1}-L-E-R-F-V-H-L-V-Q-K-{S5Ala2}-I-H-Q-{S5Ala2}-L-S [SEQ ID NO: 83],IL-15 induction of IFNγ gene transcription,[1],inhibition
same,IL-21 induction of IFNγ gene transcription,[2],inhibition
same,non-γc cytokine IL-12 induction of IFNγ gene transcription,[3],did not block
"PKEFLERFVHLVQMFIHQSLS (PKEFLERFVHLVQMFIHQSLS) [SEQ ID NO: 3, 21-mer composite peptide of γc-cytokine D-helix regions]",cellular proliferation stimulated by IL-2 (dose response),"IL-2; peptide 0-10 μM (>99% purity), cytokine at 70% proliferation level",not affected
same,cellular proliferation stimulated by IL-2 (inhibitory specificity),IL-2; peptide 2.5 μM (70% purity),not affected
same,activity of IL-15 (dose response),IL-15; [9],potently inhibited
same,activity of IL-15 (inhibitory specificity),IL-15; peptide 2.5 μM (70% purity),significantly reduced
same,activity of IL-21 (dose response),IL-21; [9],potently inhibited
same,activity of IL-21 (inhibitory specificity),IL-21; peptide 2.5 μM (70% purity),significantly reduced
same,cellular proliferation stimulated by IL-4 (inhibitory specificity),IL-4,not affected
same,cellular proliferation stimulated by IL-9 (inhibitory specificity),IL-9,not affected
same,IL-15 mediated phosphorylation of STAT-5,[4],inhibited
same,IL-2 mediated phosphorylation of STAT-5,[5],but not IL-2 mediated phosphorylation of STAT-5
same,IL-21 mediated phosphorylation of STAT-3,[6],inhibited
"IKEFLQRFIHIVQSIINTS [BNZ-γ, I-K-E-F-L-Q-R-F-I-H-I-V-Q-S-I-I-N-T-S]",percent of live cells by Guava staining,[7],not impacted
"CC[C@H](C)[C@H](NC(=O)[C@]1(C)CCCC=CCCC[C@](C)(NC(=O)[C@@H](Cc2c[nH]cn2)NC(=O)[C@@]2(C)CCCC=CCCC[C@](C)(NC(=O)[C@@H](Cc3ccccc3)NC(=O)[C@@H](CCC(=O)O)NC(=O)[C@@H](CCCCN)NC(=O)[C@H]3CCCN3C(=O)[C@@H](CCCNC(=N)N)NC(=O)[C@@H](CCCNC(=N)N)NC(=O)[C@@H](CCCNC(=N)N)NC(=O)[C@H](N)CCCNC(=N)N)C(=O)N[C@@H](CCC(=O)O)C(=O)N[C@@H](CCCNC(=N)N)C(=O)N[C@@H](Cc3ccccc3)C(=O)N2)C(=O)N[C@@H](C(C)C)C(=O)N[C@@H](CCC(N)=O)C(=O)N[C@@H](CC(C)C)C(=O)N1)C(=O)N[C@H](Cc1c[nH]cn1)C(=O)N[C@H](CCC(N)=O)C(=O)N[C@H](CO)C(=O)N[C@H](CC(C)C)C(=O)N[C@H](CO)C(=O)O [SEQ ID NO: 57, {dR}-{dR}-{dR}-{dR}-{dP}-{dK}-{dE}-{dF}-{S5Ala1}-E-R-F-{R5Ala1}-{dH}-{S5Ala2}-V-Q-L-{S5Ala2}-I-{dH}-{dQ}-{dS}-{dL}-{dS}] (H-[dR][dR][dR][dR][dP][dK][dE][dF][S5]ERF[R5][dH][S5]VQL[S5]I[dH][dQ][dS][dL][dS]-OH; staple 9-13, 15-19; N-terminus and C-terminus assumed)","percentage of undigested peptide present in simulated intestinal fluid, compared to the unmodified peptide",[8],greatly enhanced
